ChEMBL document CHEMBL1135249, “Probing the overlap of chorismate mutase and prephenate dehydrogenase sites in the escherichia coli T-protein: a dehydrogenase-selective inhibitor” (Bioorg Med Chem Lett, 2002)
pIC50, pKi: −log10 of the molar value.

Experiments:
[1] = Tested for its inhibitory activity against the enzyme prephenate dehydrogenase (PDH) in Escherichia coli T-protein
[2] = Tested for its inhibitory activity against the enzyme chorismate mutase (CM) in Escherichia coli T-protein
[3] = Tested for the inhibition against prephenate dehydrogenase; set-up: species or system Escherichia coli
[4] = Tested for its inhibitory activity against the enzyme chorismate mutase (CM) in Escherichia coli T-protein; no effect up to 1 mM

| SMILES | pKi [1] | pKi [2] | pIC50 [3] | Ki [4] |
| --- | --- | --- | --- | --- |
| O=C(O)[C@]12C[C@H]3C[C@H](C[C@H](C3)C1)C2 | 3.51 | 3.37 | – | – |
| O=P(O)(O)C12C[C@H]3C[C@@H](C1)C[C@@H](C2)C3 | 3.85 | 3.70 | – | – |
| C=C(O[C@@H]1C=C(C(=O)O)CCC1O)C(=O)O (stereo partly specified) | 3.23 | 3.37 | – | – |
| C=C(O[C@@H]1C=C(C(=O)O)C(O)C(O)[C@H]1O)C(=O)O (stereo partly specified) | 3.96 | 3.39 | – | – |
| O=C(O)[C@@H]1Cc2cccc3cccc(c23)C[C@H]1C(=O)O (racemic) | 3.67 | – | 3.60 | no effect up to 1 mM |
